Values of other authors in patent US7718634B2, “Method of treatment using bisphosphonic acid” (Hoffman-La Roche Inc., priority 2002, dated 2010).

Experiments:
bone resorption = conditions: animal models of bone resorption

CCCCCN(C)CCC(O)(P(=O)(O)O)P(=O)(O)O [ibandronate, 1-hydroxy-3-(N-methyl-N-pentyl)aminopropylidene-1,1-bisphosphonic acid]
times more potent than alendronate (bone resorption; relative to alendronate): 10 times | times more potent than clodronate (bone resorption; relative to clodronate): 500 times | times more potent than pamidronate (bone resorption; relative to pamidronate): 50 times | times more potent than risedronate (bone resorption; relative to risedronate): 2 times | number of osteoclasts (osteoclasts; at high doses): reduces the number of osteoclasts | bone resorption and mineralization (osteoclasts; in vivo): inhibits bone resorption without any impairment of mineralization | osteoclastic activity (osteoclasts; in vivo): decrease osteoclastic activity
